Earlier results in patent US20200392071A1, “Gene cluster for the biosynthetic production of tetracycline compounds in a heterologous host” (HELMHOLTZ-ZENTRUM FÜR INFEKTIONSFORSCHUNG GMBH, priority 2017, published 2020).

Key:
[1] = test system: tetracycline-resistant pathogens; details: Proctor et al. 1978
Gram-negative pathogens = details: patients with urinary tract infections caused by Gram-negative pathogens; Molnar et al. 1977

## CC(=O)C1=C(O)C(N)C2Cc3c(c(O)c4c(O)c(C)ccc4c3C)C(=O)C2(O)C1=O (centres unmarked) [chelocardin, Chelocardin]
[1]
  activity against tetracycline-resistant pathogens: active
Gram-negative pathogens
  outcome in a small phase II clinical study: promising
